Source: US9643999B2 (Bristol-Myers Squibb Company, priority 2012, dated 2017)

Experiments:
[1] = tested on: HCV genotype 1a replicon; experiment: HCV replicon luciferase reporter assay, genotype 1a (LE_1a); assay type: cell-based; settings: Hepatitis C virus, 72 h; HUH-7 cells, genotype 1a H77 replicon, 3 days incubation, Renilla luciferase; read-out: LE_1a (EC50, range)
[2] = tested on: HCV genotype 1b replicon; experiment: HCV replicon luciferase reporter assay, genotype 1b (LE_1b); assay type: cell-based; settings: Hepatitis C virus, 72 h; HUH-7 cells, genotype 1b (Con1) replicon, 3 days incubation, Renilla luciferase; read-out: LE_1b (EC50, range)
Method in brief: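 HUH-7 cells stably carrying Renilla luciferase replicons (1b Con1 with S1179I; 1a H77 with P1496L and S2204I), 3.0×10^3 cells/well in 4% FCS, 0.5% DMSO, twenty-point 3-fold titration. After 3 days at 37° C., luminescence read with EnduRen (7.5 μM final, 2 hrs). EC50 from four-parameter logistic fit; CC50 from multiplexed Cell Titer-Blue (8 hrs).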

SMILES | EC50 [1] | EC50 [2]
COc1ccc2c(O[C@@H]3C[C@H]4C(=O)N[C@]5(C(=O)NS(=O)(=O)C6(C)CC6)C[C@H]5/C=C\CC[C@@H](C)C[C@@H](C)[C@H](NC(=O)OC(C)(C)C(F)(F)F)C(=O)N4C3)cc(-n3ccc(C(F)(F)F)n3)nc2c1 [Compound 4301] | 0.51 to 1 nM | 0.51 to 1 nM
CC[C@@H]1C[C@H](C)CC/C=C\[C@@H]2C[C@@]2(C(=O)NS(=O)(=O)C2CC2)NC(=O)[C@@H]2C[C@@H](Oc3nc4ccc(OC)cc4nc3C3CC3)CN2C(=O)[C@H]1NC(=O)OC(C)(C)C [Compound 4306] | 5.01 to 35 nM | 5.01 to 35 nM
C[C@@H]1CC/C=C\[C@@H]2C[C@@]2(C(=O)NS(=O)(=O)C2(C)CC2)NC(=O)[C@@H]2C[C@@H](Oc3nc4nncn4c4ccccc34)CN2C(=O)[C@@H](NC(=O)OC(C)(C)C(F)(F)F)[C@H](C)C1 [Compound 6125] | 35 to 145 nM | 35 to 145 nM
C[C@@H]1CC/C=C\[C@@H]2C[C@@]2(C(=O)NS(=O)(=O)C2(C)CC2)NC(=O)[C@@H]2C[C@@H](Oc3nc4cc(C(=O)OC(C)(C)C)ccc4nc3C(F)(F)F)CN2C(=O)[C@@H](NC(=O)OC(C)(C)C(C)(F)F)[C@H](C)C1 [Compound 7001, tert-butyl 3-(((2R,6S,7R,9R,13aS,14aR,16aS,Z)-6-((((3,3-difluoro-2-methylbutan-2-yl)oxy)carbonyl)amino)-7,9-dimethyl-14a-(((1-methylcyclopropyl)sulfonyl)carbamoyl)-5,16-dioxo-1,2,3,5,6,7,8,9,10,11,13a,14,14a,15,16,16a-hexadecahydrocyclopropa[e]pyrrolo[1,2-a][1,4]diazacyclopentadecin-2-yl)oxy)-2-(trifluoromethyl)quinoxaline-6-carboxylate] | 1.01 to 5 nM | 0.51 to 1 nM
CC[C@@H]1C[C@H](C)CC/C=C\[C@@H]2C[C@@]2(C(=O)NS(=O)(=O)C2CC2)NC(=O)[C@@H]2C[C@@H](Oc3nc4cc(OC)ccc4nc3C3CC3)CN2C(=O)[C@H]1NC(=O)OC(C)(C)C [Compound 4307] | 1.01 to 5 nM | 1.01 to 5 nM
Cc1cn2c(n1)nc(O[C@@H]1C[C@H]3C(=O)N[C@]4(C(=O)NS(=O)(=O)C5(CF)CC5)C[C@H]4/C=C\CC[C@@H](C)C[C@@H](C)[C@H](NC(=O)OC(C)(C)C(C)(F)F)C(=O)N3C1)c1cc(Cl)ccc12 [Compound 6141] | 5.01 to 35 nM | 1.01 to 5 nM
CC[C@@H]1C[C@H](C)CC/C=C\[C@@H]2C[C@@]2(C(=O)NS(=O)(=O)C2(C)CC2)NC(=O)[C@@H]2C[C@@H](Oc3ncc(-c4nc(C(C)(C)C)cs4)c4cc(OC)ccc34)CN2C(=O)[C@H]1NC(=O)OC(C)(C)C(F)(F)F [Compound 4275] | 5.01 to 35 nM | 5.01 to 35 nM
CC[C@@H]1C[C@H](C)CC/C=C\[C@@H]2C[C@@]2(C(=O)NS(=O)(=O)C2CC2)NC(=O)[C@@H]2C[C@@H](Oc3ncc(C(=O)OC)c4cc(OC)ccc34)CN2C(=O)[C@H]1NC(=O)OC(C)(C)C(F)(F)F [Compound 4286, methyl 1-(((2R,6S,7R,9R,13aS,14aR,16aS,Z)-14a-((cyclopropylsulfonyl)carbamoyl)-7-ethyl-9-methyl-5,16-dioxo-6-((((1,1,1-trifluoro-2-methylpropan-2-yl)oxy)carbonyl)amino)-1,2,3,5,6,7,8,9,10,11,13a,14,14a,15,16,16a-hexadecahydrocyclopropa[e]pyrrolo[1,2-a][1,4]diazacyclopentadecin-2-yl)oxy)-6-methoxyisoquinoline-4-carboxylate] | 1.01 to 5 nM | 0.51 to 1 nM
[2H]C([2H])([2H])C1(S(=O)(=O)NC(=O)[C@@]23C[C@H]2/C=C\CC[C@@H](C)C[C@@H](CC)[C@H](NC(=O)OC(C)(C)C(C)(F)F)C(=O)N2C[C@H](Oc4nccc5cc(OCC)c(F)cc45)C[C@H]2C(=O)N3)CC1 [Compound 5519] | 1.01 to 5 nM | 0.51 to 1 nM
CC[C@@H]1C[C@H](C)CC/C=C\[C@@H]2C[C@@]2(C(=O)NS(=O)(=O)C2(C)CC2)NC(=O)[C@@H]2C[C@@H](Oc3nccc4c5c(ccc34)CCO5)CN2C(=O)[C@H]1NC(=O)OC(C)(C)C(F)(F)F [Compound 5500] | 5.01 to 35 nM | 5.01 to 35 nM
COc1ccc2c(O[C@@H]3C[C@H]4C(=O)N[C@]5(C(=O)NS(=O)(=O)C6(C)CC6)C[C@H]5/C=C\CC[C@@H](C)C[C@@H](C)[C@H](NC(=O)OC(C)(C)C(F)(F)F)C(=O)N4C3)cc(-n3ccc(C(C)C)n3)nc2c1 [Compound 4299] | 0.51 to 1 nM | 0.51 to 1 nM
Cc1cn2c(n1)nc(O[C@@H]1C[C@H]3C(=O)N[C@]4(C(=O)NS(=O)(=O)C5(C)CC5)C[C@H]4/C=C\CC[C@@H](C)C[C@@H](C)[C@H](NC(=O)OC(C)(C)C(F)(F)F)C(=O)N3C1)c1cc(Cl)ccc12 [Compound 6135] | 1.01 to 5 nM | 0.51 to 1 nM
